Calls of active or inactive are those of the source.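 How the source made its calls: active means EC50 no more than a set limit of log units above the highest dose; inactive means the rest.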
Target: S. pyogenes SKKanGAS, kanamycin survival, BacTiterGlo, 6 h
Assay: S. pyogenes SKKanGAS kanamycin growth inhibitors – SKKanGAS strain, luminescence, dose confirmation, streptokinase promoter inhibitor project, dose response (AID 1902);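 further: lower survival reflects blocked streptokinase promoter driving kanamycin resistance gene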

SMILES	EC50
c1ccc(/N=C2\N=C(Nc3ccccn3)c3ccccc32)nc1	2.44 µM
CCN1/C(=C\c2ccc3cc(C)ccc3[n+]2CC)Sc2cc(C)c(C)cc21	4.23 µM
CCn1ccnc1CN1CCc2c([nH]c3ccccc23)C1C1CCCCC1 (centres undefined)	2.02 µM
CC(=O)Oc1ccc(-c2nc(-c3cccnc3)no2)cc1	4.93 µM
CCCC(=O)NC(c1ccc(Cl)cc1Cl)c1ccc2cccnc2c1O (centres undefined)	0.912 µM
Cc1cccc(-c2oc3ccccc3c2-c2ccc3c(c2)OCO3)c1	3.65 µM
O=C(NC(=S)N1CCN(c2ccc(Cl)cc2[N+](=O)[O-])CC1)c1cccs1	2.75 µM
Cc1cc(N/N=C/c2c(O)ccc3ccccc23)nc(-c2ccccc2O)n1	0.257 µM
C/C(N)=C(/C#N)C(=O)COC(=O)c1cc(-c2ccc(Br)cc2)nc2ccccc12	9.97 µM
Cc1c2ccncc2c(C)c2c1[nH]c1ccccc12	3.02 µM
CCN(CC)C(=O)c1cc(-c2ccc(Br)cc2)on1	> 15 µM (inactive)
O=C(N/N=C/c1c(O)n(-c2ccccc2Cl)c(=O)c2ccccc12)C1COc2ccccc2O1 (centres undefined)	3.74 µM
CCOc1ccc(NC(=O)c2ccc3c(=O)n(-c4ccc(OC)cc4OC)c(=S)[nH]c3c2)cc1	7.86 µM
COc1cccc(NCc2cc(=O)oc3cc(C)c(O)cc23)c1	1.85 µM
O=C(Nc1ccc(Cl)c(Cl)c1)C1CC(=O)N(c2ccc(Br)cc2)C1 (centres undefined)	4.5 µM
COc1ccc(Oc2nc(C(F)(F)F)nc3ccccc23)cc1	7.14 µM
Cc1cc(SCC(=O)N/N=C/c2ccc(O)c(O)c2O)c(C)cc1Br	3.11 µM
O=c1c(O)c(-c2cccs2)oc2ccc(Cl)cc12	2.06 µM
COc1ccccc1N1CCN(C(=O)/C=C/c2c(Cl)nc3ccccn23)CC1	1.6 µM
CCCCN(C)S(=O)(=O)c1ccc(C(=O)Nc2nnc(-c3cccs3)o2)cc1	0.941 µM
N[C@@H](C(=O)N[C@@H]1C(=O)N2C(C(=O)O)=C(Cl)CS[C@H]12)c1ccccc1	0.465 µM
c1ccc(-c2nc(NCc3ccco3)c3ccccc3n2)nc1	4.7 µM

SMILES	EC50
COc1ccc(NC(=S)N=Nc2c(O)[nH]c3ccccc23)cc1	1.09 µM
Cn1nnc(-c2ccc(OCc3ccccc3F)cc2)n1	9.46 µM
CC(=O)OCC1=C(C(=O)O)N2C(=O)C(NC(=O)C(C)Cn3cc(Cl)cn3)C2SC1 (centres undefined)	1.96 µM
O=C(NC(=S)NNC(=O)c1ccccc1O)c1ccc(F)cc1	1.29 µM
C/C(=N\NC(=O)c1cc(Br)ccc1O)c1ccccn1	< 0.06 µM
COc1ccc(C(=O)NNC(=S)NC(=O)c2ccccc2)cc1	0.995 µM
CC(=O)c1cccc(OC(=O)c2ccc3c(=O)n4c(nc3c2)CCC4)c1	13.7 µM
CCn1cc(C(=O)O)c(=O)c2cc(F)c(N3CCN(C(=S)Nc4ccc(OC)cc4)CC3)cc21	3.18 µM
O=C(CCc1ccccc1)NNC(=S)NC(=O)c1ccc(Cl)cc1	0.203 µM
C=CCSc1nsc(NC(=O)Nc2ccc(F)cc2)n1	3.7 µM
COc1cc(NS(=O)(=O)c2ccc(C)cc2)c2ncccc2c1	0.777 µM
N#C/C(=C(/O)CCl)c1nc2c(s1)CCc1ccccc1-2	12.2 µM
CC(Oc1ccc2ccccc2c1)C(=O)NNC(=S)NC(=O)c1ccco1 (centres undefined)	0.149 µM
COc1ccc(-n2nc(C(=O)c3cccs3)cc(-c3nc4ccccc4[nH]3)c2=N)cc1	1.2 µM
COc1ccccc1-n1cnc2c(c1=O)c1nc3ccccc3nc1n2-c1ccc(C)c(C)c1	9.11 µM
Cc1ccc(S(=O)(=O)CNC(=S)c2ccc3ccccc3c2)cc1	4.18 µM
CC(C)=CCCC1(C)C=Cc2c(c(C)cc3c2[nH]c2cc(O)ccc23)O1 (centres undefined)	2.65 µM
CCOC(=O)C(C(=O)OCC)c1cc(Br)c2noc3c2c1C(=O)c1ccccc1-3	3.7 µM
CC(C)C(=O)Nc1ccc(C(=O)NNC(=S)NC(=O)c2cccs2)cc1	6.57 µM
Cc1cccc(NC(=O)c2nc[nH]c2C(=O)N[C@@H](CC(C)C)C(=O)OCc2ccccc2)c1	1.68 µM
O=C(c1ccccc1Cl)N1CCN(S(=O)(=O)c2cccs2)CC1	> 15 µM (inactive)
CN(C)CCNC=C(C(=O)Nc1ccc(Cl)cc1Cl)C(=O)Nc1ccc(Cl)cc1Cl	3.38 µM

SMILES	EC50
O=[N+]([O-])c1c(Nc2cccc(O)c2)cc(Cl)c2nonc12	6.5 µM
CC1=C(C(=O)O)N2C(=O)C(NC(=O)Cc3ccccc3)C2SC1 (centres undefined)	1.03 µM
Cc1nc2ccccc2c(=O)n1/N=C/c1cc(Br)cc(Br)c1O	3.04 µM
COc1ccccc1-c1cn[nH]c1-c1ccc(OCc2ccc(F)cc2)cc1O	10.8 µM
O=C1c2cccc3c([N+](=O)[O-])ccc(c23)C(=O)N1O	1.16 µM
NC(=O)NC(=O)CSc1nc2cc([N+](=O)[O-])ccc2n1-c1cccc(C(F)(F)F)c1	0.256 µM
CC(C)c1ccc(OCC(=O)NNC(=S)NC(=O)C2CC2)cc1	0.797 µM
CCc1c(C)c(C#N)c2[nH]c3ccccc3n2c1=S	14.1 µM
Fc1cc(F)c(C2SCCN2C(=S)Nc2cccc(C(F)(F)F)c2)c(F)c1 (centres undefined)	8.26 µM
Oc1cccc(NC(=S)N=Nc2c(O)[nH]c3ccc(Br)cc23)c1	2.33 µM
COc1cc(/C=N/Nc2nc(Nc3ccccc3)nc(-n3nc(C)cc3C)n2)cc(OC)c1OC	3.14 µM
CCn1c(SCC(=O)N2CC(C)OC(C)C2)nc2c([nH]c3ccccc32)c1=O (centres undefined)	> 15 µM (inactive)
Oc1cccc(-c2nc3ccc4ccccc4c3c3c2CCC3)c1	8.4 µM
COc1cc(OC)c2cc(C(=O)N/N=C/c3ccccc3O)[nH]c2c1	1.1 µM
Cn1c(SCC(=O)Nc2cccc3ccccc23)nc(O)cc1=O	> 15 µM (inactive)
Cc1cc2n(n1)C(c1c[nH]c3ccccc13)Nc1ccccc1-2 (centres undefined)	7.65 µM
CC(C)(C)c1ccc(S(=O)(=O)N2CCC(c3nc4ccc(Cl)cc4[nH]3)CC2)cc1	5.11 µM
CC1(C)CC(c2nc(-c3ccc(Cl)cc3)cs2)CCS1 (centres undefined)	6.7 µM
O=C(NNC1=C(C(=O)C(F)(F)F)CCC1)c1ccc(Br)cc1	0.926 µM
CC(C)C[C@H](NC(=O)c1[nH]cnc1C(=O)Nc1ccccc1)C(=O)OC(C)(C)C	3.8 µM
C[C@H]1COc2c(N3CCN(C)CC3)c(F)cc3c(=O)c(C(=O)O)cn1c23	1.55 µM
NNC(=O)/C(=N/Nc1ccccc1)S(=O)(=O)c1ccc(Cl)cc1	8.15 µM

SMILES	EC50
CCSc1nnc(NC(=O)c2ccccn2)s1	4 µM
O=[N+]([O-])c1cccnc1N1CCC(c2cc(-c3ccc(Cl)cc3)n[nH]2)CC1	2.96 µM
O=C(NNC1=Nc2cccc3cccc1c23)c1ccc(Br)cc1	0.22 µM
CCOC(=O)C1=C(O)c2ccccc2C(=O)/C1=C\c1ccc(CC)cc1	8.49 µM
O=[N+]([O-])c1ccc(O)c(/C=N/Nc2nc3ccccc3[nH]2)c1	0.589 µM
COc1ccc(C2C(C(=O)c3ccccc3)=C(C)Nc3nc4ccccc4n32)c(OC)c1 (centres undefined)	6.1 µM
COc1cc(/C=N/NC(=O)c2cc(-c3c(C)nn(-c4ccccc4)c3C)n[nH]2)ccc1O	2.97 µM
COc1cc(Br)cc(/C=N/NC(=O)Cc2ccc(C(F)(F)F)cc2[N+](=O)[O-])c1O	1.1 µM
CCC(C)Nc1nc(N)c([N+](=O)[O-])c(Nc2cc(OC)ccc2OC)n1 (centres undefined)	1.95 µM
CCN=C1S/C(=C\c2ccc(-c3cccc(C(=O)O)c3)o2)C(=O)N1CC	3.4 µM
Cc1cccnc1NCc1ccc(O)c2ncccc12	5.65 µM
Cc1cc(N/N=C/c2ccccc2O)nc(-c2ccccc2O)n1	1.6 µM
CC(C)(C)c1cc(NCCCn2ccnc2)n2ncc(-c3ccc(Cl)cc3)c2n1	2.38 µM
CC(C)(C)c1ccc(CN(Cc2ccco2)Cc2nnnn2C2CCCC2)cc1	4.69 µM
COc1ccc2ncc(S(=O)(=O)c3ccccc3)c(N3CCN(c4ccccc4)CC3)c2c1	3.19 µM
CCC1CCCCN1S(=O)(=O)c1ccc(C(=O)Nc2nnc(C3CC3)o2)cc1 (centres undefined)	2.23 µM
O=C(NNC(=S)NC(=O)c1cccc([N+](=O)[O-])c1)c1ccc(Br)cc1	2.07 µM
O=C(Nc1nnc(-c2ccc3c(c2)CCCC3)o1)c1c(F)cccc1F	0.612 µM
Cc1ccccc1N1CCN(C(=O)CCN2C(=O)c3ccccc3C2=O)CC1	> 15 µM (inactive)
O=C(OCc1ccccc1)c1cccc(-c2nnn(Cc3ccccc3)n2)c1	2.73 µM
O/N=C(\c1ccc(Cl)cc1Cl)c1ncc(C(F)(F)F)cc1Cl	2.74 µM
CC(C)Cn1c(=O)c(C(=O)N/N=C/c2cccc(F)c2)c(O)c2ccccc21	1.83 µM

SMILES	EC50
Cc1c(-c2cccc(Cl)c2)nc2ccccc2c1C(=O)OC/C(O)=C(\C#N)c1nc2ccccc2[nH]1	1.9 µM
C/C(=N\NC(=O)c1cccc2ccccc12)c1ccccn1	3.26 µM
COc1ccc(C(=O)NC(=S)NNC(=O)c2ccc(C)cc2)cc1	0.137 µM
O=C(Nc1ccccc1N1CCCC1)c1ccc2c(c1)OCO2	> 15 µM (inactive)
COCCNC(=O)c1c(NC(=O)c2ccco2)n(Cc2ccccc2)c2nc3ccccc3nc12	8.51 µM
S=C(NCCC(c1ccccc1)c1ccccc1)Nc1cccc(Cl)c1	5.82 µM
O=C(Nc1nc(-c2ccccn2)cs1)C1CC1	1.33 µM
Fc1ccc(N2CCN(Cc3cn[nH]c3-c3ccccc3)CC2)cc1	> 15 µM (inactive)
COc1cnc(-c2ccccn2)nc1Oc1ccc(Cl)c2ccccc12	0.142 µM
COC(=O)C(C)NC(=S)N1CCN(c2c(F)cc3c(=O)c(C(=O)O)cn(C4CC4)c3c2OC)CC1C (centres undefined)	3.31 µM
O=C(Nc1nnc(C2COc3ccccc3O2)o1)c1ccc(F)cc1 (centres undefined)	1.47 µM
COc1ccccc1Oc1cn[nH]c1-c1ccc(OCC(=O)NN)cc1O	> 15 µM (inactive)
Cc1c(C(=O)Nc2nc3ccccc3[nH]2)oc2c(Cl)cccc12	0.727 µM
C=CCn1c(SCC(=O)/C(C#N)=C(\C)N)nc2sc(C)c(C)c2c1=O	5.25 µM
COc1ccc(NC(=O)c2ccc3c(c2)NC(=O)CS3)cc1S(=O)(=O)Nc1ccc(Br)cc1	3.38 µM
Cc1cccc(NC(=S)Nc2ccc(Cl)c(Cl)c2)c1	9.6 µM
CCC(CO)Nc1ncnc2c1cnn2-c1ccc(OC)cc1 (centres undefined)	> 15 µM (inactive)
CCn1c(C)nc2cc(C(=O)NNC(=S)NC(=O)c3ccc(OC)cc3)ccc21	5.87 µM
Cc1oc(-c2cc(Cl)cc(Cl)c2)cc1C(=O)NCCc1ccccc1	11.7 µM
CC(C)CN(C(=O)COc1ccc(-c2nnco2)cc1)C1CCS(=O)(=O)C1 (centres undefined)	> 15 µM (inactive)
COc1ccc(C(=O)NC(=S)Nc2ccc(N3CCOCC3)c(Cl)c2)cc1[N+](=O)[O-]	1.97 µM

— PubChem BioAssay AID1902 (Broad Institute, 2009)
